Laboratory results as given in PubChem BioAssay (NCI).
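These data come from cells grown in 96-well plates and exposed to compound for 48 hours at five concentrations. TGI denotes the concentration required for complete inhibition of growth.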

What was measured:
Experiment in all cases: inhibition of tumour cell growth, NCI panel, 48 h
786-0 renal = test system: 786-0 renal
A549 NSCLC = test system: A549 NSCLC
CAKI-1 renal = test system: CAKI-1 renal
CCRF-CEM leukemia = test system: CCRF-CEM leukemia
COLO 205 colon = test system: COLO 205 colon
EKVX NSCLC = test system: EKVX NSCLC
HS 578T breast = test system: HS 578T breast
IGROV1 ovarian = test system: IGROV1 ovarian
K-562 leukemia = test system: K-562 leukemia
MDA-MB-435 = test system: MDA-MB-435
MDA-N = test system: MDA-N
NCI-H23 lung = test system: NCI-H23 lung
OVCAR-8 ovarian = test system: OVCAR-8 ovarian
RPMI-8226 leukemia = test system: RPMI-8226 leukemia
SF-268 CNS = test system: SF-268 CNS
SK-MEL-2 melanoma = test system: SK-MEL-2 melanoma
SK-OV-3 ovarian = test system: SK-OV-3 ovarian
SN12C renal = test system: SN12C renal
SR leukemia = test system: SR leukemia
MOLT-4 leukemia = test system: MOLT-4 leukemia

Row | Structure (SMILES) | TGI (786-0 renal) [µM] | TGI (A549 NSCLC) [µM] | TGI (CAKI-1 renal) [µM] | TGI (CCRF-CEM leukemia) [µM] | TGI (COLO 205 colon) [µM] | TGI (EKVX NSCLC) [µM] | TGI (HS 578T breast) [µM] | TGI (IGROV1 ovarian) [µM] | TGI (K-562 leukemia) [µM] | TGI (MDA-MB-435) [µM] | TGI (MDA-N) [µM] | TGI (NCI-H23 lung) [µM] | TGI (OVCAR-8 ovarian) [µM] | TGI (RPMI-8226 leukemia) [µM] | TGI (SF-268 CNS) [µM] | TGI (SK-MEL-2 melanoma) [µM] | TGI (SK-OV-3 ovarian) [µM] | TGI (SN12C renal) [µM] | TGI (SR leukemia) [µM] | TGI (MOLT-4 leukemia) [µM]
1 | O=[N+]([O-])c1cc(C(F)(F)F)ccc1S(=O)(=O)N[C@@H]1CCCC[C@H]1NS(=O)(=O)c1ccc(C(F)(F)F)cc1[N+](=O)[O-] | > 42.2 | > 31.3 | 10 | 7.87 | 6.77 | 93.3 | 8.27 | 7.5 | > 36 | 8.07 | 21.6 | 6.92 | 20.2 | > 22.3 | 7.24 | 9.88 | 71.7 | 12.6 | > 26.2 | –
2 | Cc1ccc(Cc2nn(C)c(=O)n2-n2cccc2)cc1 | > 100 | > 100 | > 100 | > 100 | > 100 | > 100 | > 100 | > 100 | > 100 | > 100 | > 100 | – | > 100 | > 100 | > 100 | > 100 | > 100 | > 100 | > 100 | > 100
3 | CSc1n[nH]c2n[nH]c(C)c12 | > 100 | > 100 | > 100 | > 100 | > 100 | > 100 | > 100 | > 100 | > 100 | > 100 | > 100 | > 100 | > 100 | > 100 | > 100 | > 100 | > 100 | > 100 | > 100 | > 100
4 | CC(=O)O[C@H]1CC[C@@]2(C)C(=CC[C@H]3[C@@H]4C/C(=C\c5ccncc5)[C@H](OC(C)=O)[C@@]4(C)CC[C@@H]32)C1 | 23.3 | 29.8 | 25.7 | 11.2 | 18.2 | 36.3 | > 100 | 27.7 | 42.4 | 36.5 | 46.8 | 19.3 | 34.5 | 7.6 | 25.8 | 33.3 | 44.1 | 33 | 9.19 | 13.9
5 | CC(=O)OC(C#N)CC(C)(C)/[N+]([O-])=[N+](\[O-])C(C)(C)CC(C#N)OC(C)=O (stereo not drawn) | 24.7 | > 100 | 30.7 | > 100 | 32 | 39.7 | 55.2 | 24 | 26.2 | 33.8 | 30.3 | 34 | 73.3 | 40.2 | 42.2 | > 100 | > 100 | 35.7 | 48.3 | 26.3
6 | CCN(CC)CCNc1ccc2ncn3c4c(OC)ccc(=O)c4c(O)c1c23 | > 100 | > 100 | > 100 | > 100 | > 100 | > 100 | > 100 | > 43.8 | > 100 | > 100 | > 100 | > 92.9 | > 100 | 17.8 | > 95.2 | > 100 | > 100 | > 100 | > 31.6 | > 24.6
7 | COc1cc(S(=O)(=O)Nc2ccc(-c3csc(/N=C\C=C\c4ccccc4)n3)cc2)ccc1Cl | > 100 | > 100 | > 100 | 50.4 | > 100 | > 100 | > 100 | > 100 | > 100 | > 100 | > 100 | > 100 | > 100 | > 100 | > 100 | 72.3 | > 100 | > 100 | > 100 | > 100
8 | O=C1Cc2c(-c3ccccc3)cc(-c3ccc4ccccc4c3)nc2-c2ccccc2N1 | > 100 | > 100 | 12.5 | > 100 | > 100 | 76.4 | 7.77 | 11.9 | 9.41 | > 100 | > 100 | > 100 | 4.9 | > 100 | 29.9 | > 100 | > 100 | 43.6 | > 100 | > 100
9 | O=C(/C=C/c1cccs1)c1ccc(Cl)s1 | > 10 | > 100 | > 100 | 59.5 | > 10 | > 100 | > 100 | > 10 | > 100 | 37.3 | > 10 | 51.2 | > 100 | 44 | > 100 | > 100 | > 100 | 34.8 | 63.2 | 52.3
10 | CC(=O)[C@]1(C)[C@H](C)O[C@](C)(CO)[C@H]1O[Si](C)(C)c1ccccc1 | > 100 | > 100 | 54.2 | > 100 | > 100 | > 100 | > 100 | 41.4 | > 100 | > 100 | > 100 | 81 | > 100 | > 100 | > 100 | > 100 | > 100 | > 100 | > 100 | > 100
11 | C=CCN(c1cc(OCc2ccccc2)c2c(c1)c(C)cn2S(=O)(=O)c1ccccc1)S(C)(=O)=O | > 100 | > 100 | > 100 | > 100 | > 100 | > 100 | > 100 | > 100 | > 100 | > 100 | > 100 | > 100 | > 100 | > 100 | > 100 | > 100 | > 100 | > 100 | > 100 | > 100
12 | O=C(O)c1nc2cc(C(F)(F)F)ccc2[nH]c1=O | > 100 | > 100 | > 100 | > 100 | > 100 | > 100 | > 100 | > 100 | > 100 | > 100 | > 100 | > 100 | > 100 | > 100 | > 100 | > 100 | > 100 | > 100 | > 100 | > 100
